In the supplement of paper PMC10307832:

What was measured:
Assay in all cases: relative viability (nuclei count vs DMSO), 5 days (fraction); higher = more cells survive
BAY61-3606 + Pemetrexed = compound: COC1=C(C=C(C=C1)C2=CC3=NC=CN3C(=N2)NC4=C(C=CC=N4)C(=O)N)OC [BAY61-3606] + Nc1nc2[nH]cc(CCc3ccc(C(=O)N[C@@H](CCC(=O)O)C(=O)O)cc3)c2c(=O)[nH]1 [Pemetrexed] (partner 0.2 µM)
How it was run: (§1)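 Each reported value is a median over duplicate plates. It expresses relative viability: treated-well nuclei count divided by vehicle-well nuclei count. Lung cancer cell lines in 1536-well plates were dosed by pin tool a day after seeding, alone with one drug or with a fixed anchor-drug dose plus five library-drug doses (not always all listed) in √10 steps, and nuclei were counted after 5 days.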

Doxorubicin + Phenformin = compound: COc1cccc2c1C(=O)c1c(O)c3c(c(O)c1C2=O)C[C@@](O)(C(=O)CO)C[C@@H]3O[C@H]1C[C@H](N)[C@H](O)[C@H](C)O1 [Doxorubicin] + N=C(N)NC(=N)NCCc1ccccc1 [Phenformin] (partner 250 µM)
How it was run: as §1

BAY61-3606 + AZD7762 = compound: COC1=C(C=C(C=C1)C2=CC3=NC=CN3C(=N2)NC4=C(C=CC=N4)C(=O)N)OC [BAY61-3606] + NC(=O)Nc1cc(-c2cccc(F)c2)sc1C(=O)N[C@H]1CCCNC1 [AZD7762] (partner 0.2 µM)
How it was run: as §1

BAY61-3606 + Tozasertib = compound: COC1=C(C=C(C=C1)C2=CC3=NC=CN3C(=N2)NC4=C(C=CC=N4)C(=O)N)OC [BAY61-3606] + Cc1cc(Nc2cc(N3CCN(C)CC3)nc(Sc3ccc(NC(=O)C4CC4)cc3)n2)n[nH]1 [Tozasertib] (partner 0.1 µM)
How it was run: as §1

Row | Cell Line | relative viability (BAY61-3606 + Pemetrexed; first compound 0.02 µM) | relative viability (BAY61-3606 + Pemetrexed; first compound 0.06325 µM) | relative viability (BAY61-3606 + Pemetrexed; first compound 0.2 µM) | relative viability (BAY61-3606 + Pemetrexed; first compound 0.6325 µM) | relative viability (BAY61-3606 + Pemetrexed; first compound 2 µM) | relative viability (Doxorubicin + Phenformin; first compound 0.001 µM) | relative viability (Doxorubicin + Phenformin; first compound 0.003162 µM) | relative viability (Doxorubicin + Phenformin; first compound 0.01 µM) | relative viability (Doxorubicin + Phenformin; first compound 0.03162 µM) | relative viability (Doxorubicin + Phenformin; first compound 0.1 µM) | relative viability (BAY61-3606 + AZD7762; first compound 0.02 µM) | relative viability (BAY61-3606 + AZD7762; first compound 0.06325 µM) | relative viability (BAY61-3606 + AZD7762; first compound 0.2 µM) | relative viability (BAY61-3606 + AZD7762; first compound 0.6325 µM) | relative viability (BAY61-3606 + AZD7762; first compound 2 µM) | relative viability (BAY61-3606 + Tozasertib; first compound 0.02 µM) | relative viability (BAY61-3606 + Tozasertib; first compound 0.06325 µM) | relative viability (BAY61-3606 + Tozasertib; first compound 0.2 µM) | relative viability (BAY61-3606 + Tozasertib; first compound 0.6325 µM) | relative viability (BAY61-3606 + Tozasertib; first compound 2 µM)
1 | LK-2 | 0.245 | 0.232 | 0.384 | 0.288 | 0.252 | 0.31 | 0.328 | 0.388 | 0.33 | 0.351 | 0.369 | 0.309 | 0.472 | 0.534 | 0.361 | 0.19 | 0.163 | 0.193 | 0.158 | 0.21
2 | LOU-NH91 | 0.402 | 0.385 | 0.413 | 0.38 | 0.413 | 0.505 | 0.695 | 0.783 | 0.698 | 0.591 | 0.792 | 0.686 | 0.748 | 0.784 | 0.656 | 0.617 | 0.363 | 0.473 | 0.422 | 0.344
3 | LU99A | 0.175 | 0.149 | 0.193 | 0.171 | 0.166 | 0.698 | 1.06 | 0.767 | 0.721 | 0.669 | 0.41 | 0.306 | 0.358 | 0.399 | 0.334 | 0.279 | 0.216 | 0.217 | 0.239 | 0.177
4 | LXF-289 | 0.94 | 0.939 | 0.901 | 0.946 | 0.907 | 0.432 | 0.545 | 0.498 | 0.504 | 0.495 | 1.13 | 1.1 | 1.04 | 1.24 | 1.24 | 0.227 | 0.183 | 0.194 | 0.16 | 0.165
5 | NCI-H23 | 0.64 | 0.689 | 0.547 | 0.708 | 0.429 | – | 0.84 | 0.806 | 0.58 | 0.486 | 0.227 | 0.192 | 0.251 | 0.265 | 0.224 | 0.378 | 0.342 | 0.296 | 0.342 | 0.236
6 | NCI-H322M | 0.598 | 0.627 | 0.634 | 0.637 | 0.538 | 0.815 | 0.731 | 0.755 | 0.429 | 0.385 | 0.528 | 0.525 | 0.579 | 0.522 | 0.571 | 0.498 | 0.477 | 0.48 | 0.421 | 0.412
7 | NCI-H358 | 0.196 | 0.184 | 0.226 | 0.163 | 0.153 | 0.299 | 0.307 | 0.176 | 0.0992 | 0.0721 | 0.489 | 0.502 | 0.469 | 0.468 | 0.261 | 0.108 | 0.111 | 0.107 | 0.103 | 0.0821
8 | NCI-H441 | 0.263 | 0.236 | 0.271 | 0.238 | 0.242 | – | 0.682 | 0.438 | 0.218 | 0.245 | 1.21 | 1.29 | 1.04 | 1.3 | 0.974 | 0.636 | 0.558 | 0.363 | 0.314 | 0.274
9 | NCI-H460 | 0.0615 | 0.0666 | 0.0787 | 0.0676 | 0.0667 | 0.435 | 0.449 | 0.179 | 0.0505 | 0.0155 | 0.63 | 0.646 | 0.739 | 0.631 | 0.766 | 0.447 | 0.0447 | 0.139 | 0.0713 | 0.0263
10 | NCI-H522 | 1.15 | 0.966 | 1.04 | 0.907 | 0.817 | 0.595 | 0.622 | 0.585 | 0.543 | 0.645 | 0.796 | 0.698 | 0.692 | 0.762 | 0.822 | 0.562 | 0.517 | 0.527 | 0.574 | 0.5
11 | NCI-H596 | 0.454 | 0.511 | 0.534 | 0.555 | 0.486 | 0.696 | 0.882 | 0.742 | 0.558 | 0.755 | 1.04 | 0.929 | 1.13 | 1.7 | 0.846 | 1.2 | 0.941 | 0.746 | 0.844 | 0.435
12 | NCI-H647 | 0.146 | 0.156 | 0.184 | 0.145 | 0.131 | 0.539 | 0.494 | 0.432 | 0.231 | 0.103 | 0.433 | 0.393 | 0.383 | 0.444 | 0.324 | 0.339 | 0.176 | 0.167 | 0.258 | 0.131
13 | NCI-H650 | 0.958 | 0.904 | 0.892 | 1.01 | 0.797 | 0.543 | 0.419 | 0.509 | 0.424 | 0.373 | 1.18 | 0.887 | 0.889 | 0.998 | 0.999 | 0.795 | 0.263 | 0.648 | 0.455 | 0.226
14 | NCI-H838 | 0.257 | 0.256 | 0.234 | 0.254 | 0.211 | 0.502 | 0.607 | 0.556 | 0.346 | 0.19 | 1.06 | 0.847 | 0.954 | 0.908 | 0.895 | 0.285 | 0.224 | 0.234 | 0.23 | 0.224
15 | NCI-H1355 | 1.1 | 1.03 | 0.977 | 1.11 | 0.924 | 0.423 | 0.488 | 0.465 | 0.449 | 0.416 | 0.833 | 0.531 | 0.679 | 0.749 | 0.529 | 0.568 | 0.344 | 0.49 | 0.344 | 0.214
